Assay results: US10456343B2, “Microemulsion compositions comprising polydatin and method of use” (L'OREAL, priority 2017, dated 2019)

Experiment: Solubility of polydatin in the microemulsion compositions
Assay type: physicochemical
Settings: solubilized in microemulsion
Excerpt: The inventors of the instant disclosure discovered that the incorporation of polydatin into the microemulsion compositions disclosed herein results in a variety of surprising and unexpected results. […] A higher amount of solubilized polydatin is particularly beneficial in cosmetic compositions for application to the skin because it allows for increased transdermal delivery. The inventors also unexpectedly discovered that polydatin acts as a “clarifying agent,” i.e., it improves or enhances the transparency (clarity) of microemulsion compositions. […] Both formulations include baicalin. […] Thus, in addition to polydatin, the microemulsion composition of the instant disclosure are effective for incorporating baicalin into cosmetic and/or pharmaceutical compositions.

solubility of polydatin in the microemulsion compositions: up to 1.5%
SMILES: OC[C@H]1O[C@@H](Oc2cc(O)cc(/C=C/c3ccc(O)cc3)c2)[C@H](O)[C@@H](O)[C@@H]1O [polydatin, 3,4′,5-trihydroxystibene-3-β-mono-D glucoside]
